Source: patent publication US20060069132A1, “Azolecarboxamide herbicides” (priority 2004, published 2006)

Assays:
blackgrass = test: Test B postemergence herbicide test; format: in vivo, Alopecurus myosuroides
Summary of the method: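 Scale 0–100: zero equals no visible effect, 100 complete control, judged by eye relative to controls. Timing: 13 to 15 days in greenhouse post-treatment. Growth stage at spraying: two leaves (paddy) or one to four leaves, 2–18 cm (postemergence).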

soybean = test: Test C pre-/postemergence herbicide test; format: in vivo, Glycine max; settings: preemergence; for Plant response rating (0 = no effect, 100 = complete control), Soybean: 125 g ai/ha
Summary of the method: (§1)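 Seeds were planted and sprayed preemergence with test chemicals in a non-phytotoxic solvent mixture containing surfactant; postemergence treatments went onto plants 2 to 18 cm tall (1- to 4-leaf stage). After 12 to 14 days in a greenhouse, injury was rated visually against untreated controls on a 0–100 scale.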

woolly cupgrass = test: Test C pre-/postemergence herbicide test; format: in vivo, Eriochloa villosa; settings: preemergence
Summary of the method: as §1

common ragweed = test: Test C pre-/postemergence herbicide test; format: in vivo, Ambrosia elatior; parameters: key to Plant response rating, Ragweed: 0 = no effect, 100 = complete control; settings: preemergence; for Plant response rating (0 = no effect, 100 = complete control), Ragweed: 125 g ai/ha
Summary of the method: as §1

rice = test: Test C flooded paddy test; format: in vivo, Oryza sativa; settings: for Plant response rating, Rice: 500 g ai/ha, visual rating after 12 to 14 days
Summary of the method: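 Injury scored visually against controls on a 0 (no effect) to 100 (complete control) scale, 12 to 14 days after treatment in greenhouse. Flooded paddy plants treated at 2-leaf stage; postemergence plants at 1- to 4-leaf stage, 2 to 18 cm tall.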

corn = test: Test B pre-/postemergence herbicide test; format: in vivo, Zea mays; settings: for Plant response rating (0 to 100 scale), Corn: 0 is no effect
Summary of the method: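 Response was scored visually 13 to 15 days after treatment against untreated greenhouse controls, 0 meaning no effect and 100 complete control. Formulations (solvent mixture plus surfactant) went onto soil after planting, onto foliage of 1- to 4-leaf plants, and onto 2-leaf plants in a flooded paddy set including rice and barnyardgrass.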

ducksalad = test: Test C flooded paddy test; format: in vivo, Heteranthera limosa; settings: for Plant response rating, Ducksalad: 500 g ai/ha, visual rating after 12 to 14 days
redroot pigweed = test: Test A pre-/postemergence herbicide test; format: in vivo, Amaranthus retroflexus
Summary of the method: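 Seeds sown in sandy loam received a preemergence directed soil spray of compound in non-phytotoxic solvent with surfactant; postemergence plants (2–10 cm, one- to two-leaf stage) were sprayed to runoff at the same time. After ~10 days in greenhouse, injury was rated visually versus untreated controls (0 = no effect, 100 = complete control).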

[1] = 125 g ai/ha, visual rating, scale 0 (no effect) to 100 (complete control), postemergence
[2] = postemergence, 500 g ai/ha, scale 0 to 100, 0 is no effect, 100 is complete control
[3] = 500 g ai/ha, scale 0 to 100 (0 no effect, 100 complete control), visual, 12 to 14 days
[4] = 125 g ai/ha, scale 0 to 100 (0 no effect, 100 complete control)
[5] = 250 g ai/ha, scale of 0 to 100, 0 is no effect, 100 is complete control
[6] = scale 0 to 100 (0 no effect, 100 complete control)
[7] = 125 g ai/ha, 100 is complete control, preemergence
[8] = Postemergence, 500 g ai/ha, scale 0 (no effect) to 100 (complete control)
[9] = postemergence, 125 g ai/ha, scale 0 to 100

SMILES | Blackgrass plant response rating (blackgrass; [1]) | Blackgrass plant response rating (blackgrass; [2]) | Plant response rating, Soybean (soybean; 62 g ai/ha, scale 0 to 100) | Plant response rating (0 = no effect, 100 = complete control), Soybean (soybean) | Plant response rating, Soybean (soybean; 250 g ai/ha, scale 0-100) | Plant response rating, Soybean (soybean; [3]) | Plant response rating, Cupgrass, Woolly (woolly cupgrass; 62 g ai/ha, scale 0 to 100) | Plant response rating (0 = no effect, 100 = complete control), Cupgrass, Woolly (woolly cupgrass; 125 g ai/ha) | Plant response rating, Cupgrass, Woolly (woolly cupgrass; 250 g ai/ha, scale 0-100) | Plant response rating, Cupgrass, Woolly (woolly cupgrass; [3]) | Plant response rating, Ragweed (common ragweed; 62 g ai/ha, scale 0 to 100) | Plant response rating (0 = no effect, 100 = complete control), Ragweed (common ragweed) | Plant response rating, Ragweed (common ragweed; 250 g ai/ha, scale 0-100) | Plant response rating, Ragweed (common ragweed; [3]) | Rice plant response rating (rice; 62 g ai/ha, scale 0 to 100) | Rice plant response rating (rice; [4]) | Rice plant response rating (rice; [5]) | Plant response rating, Rice (rice; [6]) | Corn plant response rating (corn; [1]) | Corn plant response rating (corn; [2]) | other results
CCNC(=O)c1cccc(NC(=O)c2nn(C(C)(C)CC)nc2CC)c1 [Compound 376] | 10 | 40 | 0 | 10 | 10 | 10 | 5 | 30 | 75 | 85 | 0 | 0 | 50 | 50 | 70 | 75 | 75 | 80 | 10 | 30 | Plant response rating (0 to 100 scale), Corn (corn; [7]): 40; Ducksalad plant response rating (ducksalad; 62 g ai/ha, scale 0 to 100): 25; Ducksalad plant response rating (ducksalad; [4]): 85; Ducksalad plant response rating (ducksalad; [5]): 85; Plant response rating, Ducksalad (ducksalad; [6]): 85
CCc1nn(C(C)(C)CC)nc1C(=O)Nc1cccc(C(=O)N(C)C)c1 [Compound 372] | 10 | 30 | 0 | 5 | 20 | 90 | 50 | 60 | 70 | 100 | 70 | 90 | 100 | 100 | 80 | 85 | 90 | 90 | 20 | 60 | Plant response rating (0 to 100 scale), Corn (corn; [7]): 60; Ducksalad plant response rating (ducksalad; 62 g ai/ha, scale 0 to 100): 65; Ducksalad plant response rating (ducksalad; [4]): 85; Ducksalad plant response rating (ducksalad; [5]): 85; Plant response rating, Ducksalad (ducksalad; [6]): 85
CCn1nc(C2(C)CC2)cc1C(=O)Nc1cccc(C(=O)N2CC=CC2)c1 [Compound 304] | 10 | 40 | 0 |  | 20 | 20 | 5 |  | 60 | 80 | 0 |  | 70 | 70 | 45 | 60 | 70 | 75 | 40 | 80 | Plant response rating, Cupgrass, Woolly (woolly cupgrass; 125 g ai/ha, scale 0 (no effect) to 100 (complete control), visual, 12 to 14 days): 10; Corn plant response rating (0 to 100 scale) (corn; 125 g ai/ha, 0 = no effect, 100 = complete control, preemergence): 0; Ducksalad plant response rating (ducksalad; 62 g ai/ha, scale 0 to 100): 65; Ducksalad plant response rating (ducksalad; [4]): 85; Ducksalad plant response rating (ducksalad; [5]): 95; Plant response rating, Ducksalad (ducksalad; [6]): 95
CCC1=NN(C(C)(C)C)CC1C(=O)Nc1cc(C(=O)N2CCCC2)ccc1F (racemic) [Compound 341] | 10 | 20 | 0 | 20 | 70 | 100 | 80 | 80 | 100 | 100 | 50 | 100 | 100 | 100 | 20 | 50 | 60 | 70 | 0 | 10 | Ducksalad plant response rating (ducksalad; 62 g ai/ha, scale 0 to 100): 20; Ducksalad plant response rating (ducksalad; [4]): 50; Ducksalad plant response rating (ducksalad; [5]): 60; Plant response rating, Ducksalad (ducksalad; [6]): 60
CCc1nn(C(C)(C)C)nc1C(=O)Nc1cccc(C(=O)NC2CC2)c1 [Compound 417] |  |  | 0 | 0 |  | 40 | 0 | 20 | 65 | 85 | 0 | 20 |  | 90 |  |  |  |  |  |  | Blackgrass plant response rating (blackgrass; [8]): 40; Blackgrass plant response rating (blackgrass; [9]): 10; Pigweed plant response rating (redroot pigweed; Postemergence, 500 g ai/ha, 0 to 100 scale, 0 no effect, 100 complete control): 100; Plant response rating, Pigweed (redroot pigweed; Postemergence, 2000 g ai/ha, 0 to 100 scale, 0 no effect, 100 complete control): 100; Pigweed plant response rating (redroot pigweed; Preemergence, 2000 g ai/ha, visual rating, 0 to 100 scale (0 no effect, 100 complete control)): 100; Pigweed plant response rating (redroot pigweed; preemergence, 500 g ai/ha, visual injury, 0 to 100 scale (0 no effect, 100 complete control)): 95; Plant response rating (0 to 100 scale), Corn (corn; [7]): 40; Corn plant response rating (corn; [8]): 30; Corn plant response rating (corn; [9]): 10
